According to ChEMBL document CHEMBL4765285, “Discovery of orally active indirubin-3'-oxime derivatives as potent type 1 FLT3 inhibitors for acute myeloid leukemia” (Eur J Med Chem, 2020):
Active and inactive are the calls of the source. No cut-off for these calls is given here.

Key:
[1] = biological target: T1, High affinity nerve growth factor receptor (Homo sapiens, UniProt P04629); test: Inhibition of human TrkA in presence of ATP
[2] = biological target: T2, Maternal embryonic leucine zipper kinase (Homo sapiens, UniProt Q14680); test: Inhibition of human MELK at 100 nM in presence of ATP relative to control
[3] = tested on: Receptor-type tyrosine-protein kinase FLT3 (Homo sapiens), P36888 [D835Y]; test: Inhibition of human FLT3 D835Y mutant at 100 nM in presence of ATP relative to control
[4] = biological target: T1, High affinity nerve growth factor receptor; test: Inhibition of human TrkA at 100 nM in presence of ATP relative to control
[5] = biological target: Cyclin-dependent kinase 2 (Homo sapiens) (UniProt P24941); test: Inhibition of human CDK2 at 100 nM in presence of ATP relative to control
[6] = Toxicity in BALB/c nu/nu mouse xenografted with human MV4-11 cells assessed as body weight loss at 20 mg/kg, po administered for 21 days; format: organism-based; conditions: in vivo, 504 h, time 21 day
[7] = biological target: T3, Proto-oncogene tyrosine-protein kinase receptor Ret (Homo sapiens, UniProt P07949); test: Inhibition of human RET at 100 nM in presence of ATP relative to control
T3 sequence (P07949 whole entry): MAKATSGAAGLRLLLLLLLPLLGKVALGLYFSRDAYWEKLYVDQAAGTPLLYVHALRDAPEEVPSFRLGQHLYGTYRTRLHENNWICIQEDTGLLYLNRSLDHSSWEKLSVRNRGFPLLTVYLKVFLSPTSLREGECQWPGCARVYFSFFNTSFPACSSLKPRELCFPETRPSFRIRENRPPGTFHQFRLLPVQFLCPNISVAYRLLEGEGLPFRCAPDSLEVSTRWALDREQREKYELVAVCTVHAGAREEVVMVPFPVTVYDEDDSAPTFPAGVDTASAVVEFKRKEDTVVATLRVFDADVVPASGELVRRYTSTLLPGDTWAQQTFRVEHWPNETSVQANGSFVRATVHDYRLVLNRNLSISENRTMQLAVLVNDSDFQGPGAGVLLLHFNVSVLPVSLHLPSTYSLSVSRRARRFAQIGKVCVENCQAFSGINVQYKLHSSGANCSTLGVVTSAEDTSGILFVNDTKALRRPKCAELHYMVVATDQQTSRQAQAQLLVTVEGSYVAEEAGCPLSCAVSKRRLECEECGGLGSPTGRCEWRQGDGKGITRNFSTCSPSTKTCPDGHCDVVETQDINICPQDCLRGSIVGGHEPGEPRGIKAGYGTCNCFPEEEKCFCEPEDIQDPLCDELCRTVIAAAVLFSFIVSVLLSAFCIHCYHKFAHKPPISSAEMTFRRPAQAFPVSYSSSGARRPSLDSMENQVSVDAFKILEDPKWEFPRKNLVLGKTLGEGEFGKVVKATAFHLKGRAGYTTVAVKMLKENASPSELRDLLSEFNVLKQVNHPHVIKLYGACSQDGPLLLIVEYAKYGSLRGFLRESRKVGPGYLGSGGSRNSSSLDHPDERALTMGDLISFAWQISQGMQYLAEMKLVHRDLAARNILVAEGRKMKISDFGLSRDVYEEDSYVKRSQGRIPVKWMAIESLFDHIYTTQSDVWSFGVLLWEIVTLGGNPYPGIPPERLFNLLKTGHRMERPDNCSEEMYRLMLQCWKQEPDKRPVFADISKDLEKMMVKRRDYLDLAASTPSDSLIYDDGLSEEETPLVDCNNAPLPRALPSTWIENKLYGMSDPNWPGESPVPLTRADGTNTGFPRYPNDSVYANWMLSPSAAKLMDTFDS

HepG2 = test: cells; conditions: Homo sapiens
Description: Antiproliferative activity against human HepG2 cells assessed as cell growth inhibition by WST assay

MV4-11 [8] = test: cells; conditions: Homo sapiens, MV4-11, 72 h
Description: Antiproliferative activity against human MV4-11 cells assessed as cell growth inhibition after 72 hrs by WST assay

MOLM-14 [9] = test: cells; conditions: Homo sapiens
Description: Antiproliferative activity against human MOLM14 cells harboring ITD/F691L mutant assessed as cell growth inhibition by MTT assay

[10] = biological target: Mast/stem cell growth factor receptor Kit (Homo sapiens) (UniProt P10721); test: Inhibition of human c-KIT at 100 nM in presence of ATP relative to control
[11] = biological target: T4, Macrophage colony-stimulating factor 1 receptor (Homo sapiens, UniProt P07333); test: Inhibition of human FMS at 100 nM in presence of ATP relative to control
T4 sequence (P07333 whole entry): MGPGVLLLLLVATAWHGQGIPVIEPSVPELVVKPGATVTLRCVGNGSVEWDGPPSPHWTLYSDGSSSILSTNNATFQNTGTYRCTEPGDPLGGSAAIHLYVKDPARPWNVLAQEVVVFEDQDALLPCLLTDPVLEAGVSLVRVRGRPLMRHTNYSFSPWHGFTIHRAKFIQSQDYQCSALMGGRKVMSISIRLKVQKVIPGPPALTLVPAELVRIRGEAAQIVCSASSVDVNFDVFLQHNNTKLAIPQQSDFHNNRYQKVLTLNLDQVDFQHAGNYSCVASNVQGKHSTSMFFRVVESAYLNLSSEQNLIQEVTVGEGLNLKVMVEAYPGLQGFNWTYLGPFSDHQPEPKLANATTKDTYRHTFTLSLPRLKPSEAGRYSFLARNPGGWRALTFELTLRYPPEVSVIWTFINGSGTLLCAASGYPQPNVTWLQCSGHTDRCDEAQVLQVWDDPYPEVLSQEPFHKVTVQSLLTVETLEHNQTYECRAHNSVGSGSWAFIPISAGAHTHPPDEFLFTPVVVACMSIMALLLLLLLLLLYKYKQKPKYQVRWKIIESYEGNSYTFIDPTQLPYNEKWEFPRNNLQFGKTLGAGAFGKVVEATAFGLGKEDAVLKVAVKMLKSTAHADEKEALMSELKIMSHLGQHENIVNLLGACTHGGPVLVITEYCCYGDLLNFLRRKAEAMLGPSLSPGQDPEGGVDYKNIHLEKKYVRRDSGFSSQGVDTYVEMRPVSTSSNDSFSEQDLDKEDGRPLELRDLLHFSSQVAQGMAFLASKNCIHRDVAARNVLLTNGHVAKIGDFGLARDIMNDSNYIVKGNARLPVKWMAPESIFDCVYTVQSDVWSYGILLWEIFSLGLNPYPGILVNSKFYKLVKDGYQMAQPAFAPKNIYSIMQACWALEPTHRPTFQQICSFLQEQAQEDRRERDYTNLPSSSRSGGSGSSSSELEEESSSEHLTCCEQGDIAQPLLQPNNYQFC

[12] = biological target: Receptor-type tyrosine-protein kinase FLT3 (Homo sapiens, UniProt P36888, ITD); test: Binding affinity to human FLT3 ITD mutant in presence of ATP by Lanthascreen Eu kinase binding assay
[13] = biological target: T5, Proto-oncogene tyrosine-protein kinase Src (Homo sapiens, UniProt P12931); test: Inhibition of human c-SRC in presence of ATP
T5 sequence (P12931 2-536 limits assumed): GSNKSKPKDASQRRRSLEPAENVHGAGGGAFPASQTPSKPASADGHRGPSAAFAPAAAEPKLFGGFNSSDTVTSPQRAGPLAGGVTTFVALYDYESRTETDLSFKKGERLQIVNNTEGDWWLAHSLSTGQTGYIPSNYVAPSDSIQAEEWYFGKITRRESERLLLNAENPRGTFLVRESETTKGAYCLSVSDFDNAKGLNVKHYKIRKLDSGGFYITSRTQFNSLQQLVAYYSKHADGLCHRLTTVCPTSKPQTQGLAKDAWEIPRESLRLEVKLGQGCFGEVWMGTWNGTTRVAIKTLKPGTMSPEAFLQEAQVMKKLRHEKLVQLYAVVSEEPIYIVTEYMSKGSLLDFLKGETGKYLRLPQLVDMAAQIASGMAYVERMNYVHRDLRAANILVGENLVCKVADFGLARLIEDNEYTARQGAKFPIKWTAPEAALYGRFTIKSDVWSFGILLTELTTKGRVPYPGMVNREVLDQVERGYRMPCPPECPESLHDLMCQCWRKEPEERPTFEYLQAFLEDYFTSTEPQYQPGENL

hERG (KCNH2) = hERG (KCNH2) (Homo sapiens, UniProt Q12809); test: Inhibition of human ERG at 10 uM relative to control
[14] = biological target: BDNF/NT-3 growth factors receptor (Homo sapiens, UniProt Q16620); test: Inhibition of human TrkB at 100 nM in presence of ATP relative to control
Chain of BDNF/NT-3 growth factors receptor (Q16620 32-822 limits assumed): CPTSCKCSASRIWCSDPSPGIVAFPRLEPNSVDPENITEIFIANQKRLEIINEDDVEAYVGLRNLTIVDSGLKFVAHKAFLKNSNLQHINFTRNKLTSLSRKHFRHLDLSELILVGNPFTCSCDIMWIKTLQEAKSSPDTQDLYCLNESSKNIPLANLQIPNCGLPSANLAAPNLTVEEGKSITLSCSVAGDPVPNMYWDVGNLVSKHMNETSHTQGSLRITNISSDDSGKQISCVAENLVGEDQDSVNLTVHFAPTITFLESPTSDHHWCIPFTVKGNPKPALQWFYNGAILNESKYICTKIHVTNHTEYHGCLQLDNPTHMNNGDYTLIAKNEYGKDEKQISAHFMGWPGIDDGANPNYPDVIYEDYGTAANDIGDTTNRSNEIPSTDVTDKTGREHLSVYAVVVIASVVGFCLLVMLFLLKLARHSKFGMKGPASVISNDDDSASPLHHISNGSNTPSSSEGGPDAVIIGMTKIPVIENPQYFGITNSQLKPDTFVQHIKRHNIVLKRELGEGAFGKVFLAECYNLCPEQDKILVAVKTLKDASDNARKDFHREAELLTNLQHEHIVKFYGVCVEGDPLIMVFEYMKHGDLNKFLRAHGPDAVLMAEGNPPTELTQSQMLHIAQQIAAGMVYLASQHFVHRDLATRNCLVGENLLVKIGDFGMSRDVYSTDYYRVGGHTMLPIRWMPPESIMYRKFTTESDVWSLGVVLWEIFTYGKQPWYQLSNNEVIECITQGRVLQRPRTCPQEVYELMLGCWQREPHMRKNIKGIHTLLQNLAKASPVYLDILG

[15] = AUClast in ICR mouse at 10 mg/kg, iv or po measured up to 1440 mins by LC-MS/MS analysis; format: ADME, organism-based; design: dose 10 mg/kg, time <=1440; conditions: in vivo
[16] = biological target: T6, Vascular endothelial growth factor receptor 3 (Homo sapiens, UniProt P35916); test: Inhibition of human FLT4 in presence of ATP
T6 sequence (P35916 whole entry): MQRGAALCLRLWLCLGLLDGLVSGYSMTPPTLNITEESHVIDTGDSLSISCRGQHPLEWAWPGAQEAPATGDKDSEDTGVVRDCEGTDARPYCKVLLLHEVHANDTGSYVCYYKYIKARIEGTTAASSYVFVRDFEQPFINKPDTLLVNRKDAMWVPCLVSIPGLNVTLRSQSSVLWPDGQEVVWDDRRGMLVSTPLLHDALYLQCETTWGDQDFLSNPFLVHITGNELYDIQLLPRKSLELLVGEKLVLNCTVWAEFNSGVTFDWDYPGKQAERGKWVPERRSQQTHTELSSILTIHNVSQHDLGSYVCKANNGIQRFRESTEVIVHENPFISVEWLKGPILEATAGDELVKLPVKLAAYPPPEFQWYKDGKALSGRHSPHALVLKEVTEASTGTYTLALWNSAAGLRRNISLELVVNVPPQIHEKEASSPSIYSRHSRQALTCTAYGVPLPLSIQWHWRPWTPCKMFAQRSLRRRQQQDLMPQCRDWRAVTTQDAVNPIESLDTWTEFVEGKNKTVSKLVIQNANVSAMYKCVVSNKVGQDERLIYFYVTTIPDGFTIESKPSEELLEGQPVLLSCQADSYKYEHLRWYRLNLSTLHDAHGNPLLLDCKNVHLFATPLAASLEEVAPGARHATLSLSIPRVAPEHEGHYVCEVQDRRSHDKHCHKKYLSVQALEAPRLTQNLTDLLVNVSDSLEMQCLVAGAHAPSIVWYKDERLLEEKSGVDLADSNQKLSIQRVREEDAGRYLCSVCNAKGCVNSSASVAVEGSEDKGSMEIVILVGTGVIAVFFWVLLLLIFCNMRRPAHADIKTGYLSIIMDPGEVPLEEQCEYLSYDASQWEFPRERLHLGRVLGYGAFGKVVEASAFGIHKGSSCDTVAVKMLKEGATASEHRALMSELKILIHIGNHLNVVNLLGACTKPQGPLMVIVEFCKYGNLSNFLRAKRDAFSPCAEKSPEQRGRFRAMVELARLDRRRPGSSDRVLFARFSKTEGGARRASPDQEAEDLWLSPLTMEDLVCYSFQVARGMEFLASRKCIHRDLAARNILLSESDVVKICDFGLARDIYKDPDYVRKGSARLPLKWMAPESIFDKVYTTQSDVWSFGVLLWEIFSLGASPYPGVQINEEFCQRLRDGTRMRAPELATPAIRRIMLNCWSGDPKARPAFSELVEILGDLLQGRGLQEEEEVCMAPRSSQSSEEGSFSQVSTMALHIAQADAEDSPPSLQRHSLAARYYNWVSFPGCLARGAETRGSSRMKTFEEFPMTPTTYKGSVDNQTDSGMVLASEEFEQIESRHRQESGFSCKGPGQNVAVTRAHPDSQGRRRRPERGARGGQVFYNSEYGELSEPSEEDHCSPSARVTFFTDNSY

MV4-11 [17] = test: Antitumor activity against human MV4-11 cells xenografted in BALB/c nu/nu mouse assessed as reduction in tumor volume at 20 mg/kg, po administered once daily for 21 days measured twice daily during compound dosing; format: functional, organism-based; conditions: time 21.0 day
[18] = biological target: T3, Proto-oncogene tyrosine-protein kinase receptor Ret; test: Inhibition of human RET in presence of ATP
[19] = Acute toxicity in ICR male mouse assessed as approximate lethal dose; conditions: in vivo, read-out: ALD50
MOLM-14 [20] = test: cells; conditions: Homo sapiens; remark: listed apart in the source
Description: Antiproliferative activity against wild type human MOLM14 cells assessed as cell growth inhibition by MTT assay

[21] = Selectivity index, ratio of GI50 for human K562 cells to GI50 for human MV4-11 cells; format: functional
[22] = biological target: T5, Proto-oncogene tyrosine-protein kinase Src; test: Inhibition of human c-SRC at 100 nM in presence of ATP relative to control
[23] = biological target: T4, Macrophage colony-stimulating factor 1 receptor; test: Inhibition of human FMS in presence of ATP
[24] = biological target: T7, Receptor-type tyrosine-protein kinase FLT3 (Homo sapiens, UniProt P36888)
T7 sequence (P36888 whole entry): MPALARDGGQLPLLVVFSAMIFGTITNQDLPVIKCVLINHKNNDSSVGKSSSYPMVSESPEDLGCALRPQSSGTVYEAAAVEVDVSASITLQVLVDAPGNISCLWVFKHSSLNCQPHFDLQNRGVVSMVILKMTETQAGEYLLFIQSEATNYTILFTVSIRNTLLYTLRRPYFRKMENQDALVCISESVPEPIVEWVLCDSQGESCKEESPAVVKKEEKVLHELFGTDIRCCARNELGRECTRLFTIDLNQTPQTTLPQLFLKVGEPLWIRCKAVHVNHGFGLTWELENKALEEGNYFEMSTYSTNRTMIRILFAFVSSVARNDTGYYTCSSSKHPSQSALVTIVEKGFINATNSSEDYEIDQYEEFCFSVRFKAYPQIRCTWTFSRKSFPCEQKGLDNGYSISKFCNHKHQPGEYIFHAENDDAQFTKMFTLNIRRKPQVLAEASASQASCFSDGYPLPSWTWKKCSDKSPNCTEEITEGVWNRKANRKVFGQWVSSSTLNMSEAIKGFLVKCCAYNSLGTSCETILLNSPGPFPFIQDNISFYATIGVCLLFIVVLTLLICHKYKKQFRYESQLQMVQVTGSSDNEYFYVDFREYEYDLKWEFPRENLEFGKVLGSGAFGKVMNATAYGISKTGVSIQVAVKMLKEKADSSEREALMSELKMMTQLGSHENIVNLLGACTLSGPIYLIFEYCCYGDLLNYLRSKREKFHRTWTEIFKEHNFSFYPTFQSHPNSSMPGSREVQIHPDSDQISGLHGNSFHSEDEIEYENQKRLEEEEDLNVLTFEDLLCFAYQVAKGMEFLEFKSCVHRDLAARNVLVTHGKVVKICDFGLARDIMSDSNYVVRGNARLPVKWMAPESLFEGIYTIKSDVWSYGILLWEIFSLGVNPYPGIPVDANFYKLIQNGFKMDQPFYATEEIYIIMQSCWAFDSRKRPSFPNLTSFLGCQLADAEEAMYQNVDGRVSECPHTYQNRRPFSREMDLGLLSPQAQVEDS
Description: Inhibition of recombinant His-tagged human FLT3 expressed in baculovirus expression system using peptide substrate incubated for 30 mins in presence of ATP by HTRF assay

[25] = biological target: T6, Vascular endothelial growth factor receptor 3; test: Inhibition of human FLT4 at 100 nM in presence of ATP relative to control
[26] = biological target: Tyrosine-protein kinase Mer (Homo sapiens, UniProt Q12866); test: Inhibition of human MER in presence of ATP
[27] = Cmax in ICR mouse at 10 mg/kg, iv or po measured up to 1440 mins by LC-MS/MS analysis; format: ADME, organism-based; design: dose 10 mg/kg, time <=1440; conditions: in vivo
[28] = biological target: Tyrosine-protein kinase Mer (Homo sapiens) (UniProt Q12866); test: Inhibition of human MER at 100 nM in presence of ATP relative to control
[29] = biological target: T2, Maternal embryonic leucine zipper kinase; test: Inhibition of human MELK in presence of ATP

## Cl.O=C1Nc2ccc(F)cc2/C1=C1/Nc2ccccc2/C1=N\OCCN1CCNCC1
[1]
  IC50: 6.89 nM
[2]
  inhibition: 86%
[3]
  inhibition: 99%
[4]
  inhibition: 99%
[5]
  inhibition: 43%
[6]
  Activity: Non-Toxic
[7]
  inhibition: 98%
HepG2
  GI50: 1100 nM
MV4-11 [8]
  GI50: 1 nM
MOLM-14 [9]
  GI50: 3.27 nM
[10]
  inhibition: 22%
[11]
  inhibition: 92%
[12]
  Kd: < 0.25 nM
[13]
  IC50: 9.52 nM
hERG (KCNH2)
  inhibition at 10 µM: 21.4%
[14]
  inhibition: 100%
[15]
  AUC(0-t) at 24 h: 417 ng·h/mL
[16]
  IC50: 23.8 nM
MV4-11 [17]
  Activity: Active
[18]
  IC50: 1.21 nM
[19]
  LD50: 2000 mg/kg
MOLM-14 [20]
  GI50: 4.88 nM
[21]
  RatioGI50: 430
[22]
  inhibition: 87%
[23]
  IC50: 4.2 nM
[24]
  IC50: 0.87 nM
[25]
  inhibition: 89%
[26]
  IC50: 3.01 nM
[27]
  Cmax: 36.5 ng/mL
[28]
  inhibition: 100%
[29]
  IC50: 5.54 nM
